From patent publication US5462926A (Biomeasure, Inc., priority 1993, dated 1995)
Where a SMILES comes first, the peptide text is derived from it. Bridges are numbered along the chain shown (N, C = ends). [ ]: non-standard residue; d: D form. 2Nal = N[C@@H](Cc1ccc2ccccc2c1)C(=O)O; d2Nal = N[C@H](Cc1ccc2ccccc2c1)C(=O)O

What was measured:
Type in all cases: binding
Conditions in all cases: 1 μM
CCKB = target: T1, CCKB (Rattus norvegicus, UniProt P30553); assay: CCKB membrane receptor assay, rat cerebral cortex
T1 construct: rat cerebral cortex (CCKB, PYY, neurotensin,; from tissue; host or cells: rat cerebral cortex membranes

α2-adrenergic receptor = assay: α2-adrenergic membrane receptor assay, rat cerebral cortex
[1] = test system: muscarinic cholinergic receptor; assay: Muscarinic cholinergic membrane receptor assay, rat cerebral cortex
sigma opioid receptor = target: T2, sigma opioid receptor (Cavia porcellus, UniProt Q60492); assay: Sigma opioid membrane receptor assay, guinea pig cerebral
T2 construct: guinea pig cerebral (N1, histamine H1, and sigma opioid membrane receptor assays); from tissue; host or cells: guinea pig cerebral membranes

[2] = target: T3, benzodiazepine-peripheral receptor (Rattus norvegicus, UniProt P16257); assay: Peripheral benzodiazepine membrane receptor assay, rat cerebral cortex
T3 construct: from tissue; host or cells: rat cerebral cortex membranes

PYY receptor = assay: PYY membrane receptor assay, rat cerebral cortex
histamine H1 receptor = target: T4, histamine H1 receptor (Cavia porcellus, UniProt P31389); assay: Histamine H1 membrane receptor assay, guinea pig cerebral
T4 construct: guinea pig cerebral (N1, histamine H1, and sigma opioid membrane receptor assays); from tissue; host or cells: guinea pig cerebral membranes

[3] = target: T5, N-methyl D-aspartate receptors (Rattus norvegicus, UniProt P35439); assay: N-methyl-D-aspartate membrane receptor assay, rat cerebral cortex
T5 construct: from tissue; host or cells: rat cerebral cortex membranes

delta opioid receptor = target: T6, delta opioid receptor (Rattus norvegicus, UniProt P33533); assay: Delta opioid membrane assay, rat forebrain
T6 construct: rat forebrain (TRH, mu and delta opioid membrane assays); from tissue; host or cells: rat forebrain membranes
T6 sequence (P33533 whole entry): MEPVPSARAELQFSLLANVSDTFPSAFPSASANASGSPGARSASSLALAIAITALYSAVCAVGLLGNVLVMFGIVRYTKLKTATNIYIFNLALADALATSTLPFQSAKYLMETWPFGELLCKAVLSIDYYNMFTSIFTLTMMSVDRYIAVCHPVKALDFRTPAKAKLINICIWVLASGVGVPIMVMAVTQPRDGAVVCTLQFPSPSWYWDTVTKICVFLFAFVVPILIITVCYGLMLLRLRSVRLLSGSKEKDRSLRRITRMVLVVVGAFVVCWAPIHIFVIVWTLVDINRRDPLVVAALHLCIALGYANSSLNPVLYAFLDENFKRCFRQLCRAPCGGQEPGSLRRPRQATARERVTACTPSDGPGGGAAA

T3 sequence (P16257 whole entry): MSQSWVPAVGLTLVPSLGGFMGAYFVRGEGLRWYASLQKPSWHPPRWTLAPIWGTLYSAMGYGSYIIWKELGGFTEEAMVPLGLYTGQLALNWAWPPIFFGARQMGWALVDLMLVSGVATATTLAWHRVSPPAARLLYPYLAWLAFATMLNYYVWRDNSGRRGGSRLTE
T2 sequence (Q60492 whole entry): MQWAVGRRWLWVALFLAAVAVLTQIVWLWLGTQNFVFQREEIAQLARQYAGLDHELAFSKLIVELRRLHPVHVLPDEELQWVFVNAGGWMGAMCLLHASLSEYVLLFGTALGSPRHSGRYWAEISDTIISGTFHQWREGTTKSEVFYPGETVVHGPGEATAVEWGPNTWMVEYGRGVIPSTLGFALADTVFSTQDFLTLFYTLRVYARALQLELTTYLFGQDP
T1 sequence (P30553 whole entry): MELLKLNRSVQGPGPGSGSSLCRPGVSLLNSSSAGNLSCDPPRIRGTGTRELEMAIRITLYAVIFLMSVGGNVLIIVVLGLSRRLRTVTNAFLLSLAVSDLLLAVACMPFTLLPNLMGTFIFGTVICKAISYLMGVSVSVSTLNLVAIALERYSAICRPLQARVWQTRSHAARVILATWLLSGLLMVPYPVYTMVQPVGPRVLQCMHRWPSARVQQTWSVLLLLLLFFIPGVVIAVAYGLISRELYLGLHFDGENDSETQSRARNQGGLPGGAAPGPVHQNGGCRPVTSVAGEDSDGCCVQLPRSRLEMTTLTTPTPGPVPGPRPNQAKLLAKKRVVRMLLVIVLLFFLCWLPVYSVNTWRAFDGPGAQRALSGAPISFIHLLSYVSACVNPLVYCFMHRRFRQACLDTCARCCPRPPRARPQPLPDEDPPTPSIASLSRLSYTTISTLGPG
T4 sequence (P31389 whole entry): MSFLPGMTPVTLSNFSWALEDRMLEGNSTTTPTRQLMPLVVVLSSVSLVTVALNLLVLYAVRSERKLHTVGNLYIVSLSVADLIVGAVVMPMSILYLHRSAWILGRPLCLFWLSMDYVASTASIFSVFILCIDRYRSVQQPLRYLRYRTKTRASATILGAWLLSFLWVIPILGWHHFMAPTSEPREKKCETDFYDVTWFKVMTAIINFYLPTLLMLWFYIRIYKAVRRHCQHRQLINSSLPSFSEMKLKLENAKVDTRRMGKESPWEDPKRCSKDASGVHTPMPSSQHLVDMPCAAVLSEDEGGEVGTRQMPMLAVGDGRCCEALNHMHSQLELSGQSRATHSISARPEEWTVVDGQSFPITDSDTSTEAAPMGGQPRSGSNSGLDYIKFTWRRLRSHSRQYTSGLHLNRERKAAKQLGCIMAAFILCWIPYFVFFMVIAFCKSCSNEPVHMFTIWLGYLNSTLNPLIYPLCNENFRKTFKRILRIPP

CC(C)[C@@H]1NC(=O)[C@H](CCCCN)NC(=O)[C@@H](Cc2c[nH]c3ccccc23)NC(=O)[C@H](Cc2ccc(O)cc2)NC(=O)[C@@H](NC(=O)[C@H](N)Cc2ccc3ccccc3c2)CSSC[C@@H](C(=O)N[C@@H](Cc2ccc3ccccc3c2)C(N)=O)NC1=O [Analog #1, H2 -D-Nal-Cys-Tyr-D-Trp-Lys-Val-Cys-Nal-NH2] (H-[d2Nal]CY[dW]KVC[2Nal]-NH2; disulfide 2-7)
did not inhibit binding: inhibition of binding to CCKB receptors (CCKB) | inhibition of binding to α2-adrenergic receptors (α2-adrenergic receptor) | inhibition of binding to muscarinic cholinergic receptors [1] | inhibition of binding to sigma opioid receptors (sigma opioid receptor) | inhibition of binding to benzodiazepine-peripheral receptors [2] | inhibition of binding to PYY receptors (PYY receptor) | inhibition of binding to histamine H1 receptors (histamine H1 receptor) | inhibition of binding to N-methyl D-aspartate receptors [3] | inhibition of binding to delta opioid receptors (delta opioid receptor)
